From patent US9408888B2, “High affinity bivalent helically constrained peptide against cancer” (COUNCIL OF SCIENTIFIC AND INDUSTRIAL RESEARCH, priority 2011, dated 2016)
Where a SMILES comes first, the peptide text is derived from it. Bridges are numbered along the chain shown (N, C = ends). Roman numbers before positions name the chains, in order. Where no end group is shown, it is not given here. [ ]: non-standard residue; d: D form. Aib = CC(C)(N)C(=O)O; Ahx = NCCCCCC(=O)O

What was measured:
[1] = test system: SK-MEL-5 cells; assay type: cell-based; conditions: 18 h
Experimental: FIG. 4. (A) Assay of cell viability using incorporation of ^3H-thymidine after treatment with different concentrations of SEQ ID No. 10 for 18 hrs. (B) Flow cytometry of SK-MEL5 cells before and after treatment with 10 microM SEQ ID No. 10 with DR6 tags at two branches, using Annexin V and Propidium Iodide (lower panel) and forward/side scatter (upper panel).
The effect of SEQ ID No. 10 on viability was also measured by ^3H thymidine uptake (FIG. 4 (A)). […] The apoptosis of SK-Mel5 cells was quantitated using flow cytometry. 49% of cells were determined to be apoptotic and 11% necrotic at 2 hrs using annexin V stain. Corresponding figures for 6 hrs were 57% and 14%, respectively (FIG. 4(B)). From the results presented here and analysis of growth promoting pathways described later-S100B appears to be a generalized growth promoter, when over-expressed.

[2] = Toxicity in mice, i.v. treatment; assay type: in vivo, mouse
Experimental: The effect of SEQ ID No. 10 was tested in a syngenic mouse model of melanoma. […] Histopathology of some key target organs after 8 days of treatment was normal, indicating no significant toxicity. […] Immuno-histochemistry of growth marker PCNA indicates complete loss of this antigen in the residual tumor mass upon treatment, indicating complete loss of proliferating cells (FIG. 7(C)).
Experiments were carried out under protocols approved by the Institutional Animal Ethics Committee and institutional guidelines for the proper use of animals in research were followed. National guidelines had been followed. C57BL/6J female mice (mean initial weight, 20 g) were kept in one mice in one cage at 19° C. to 23° C. with a 12 hour light/12 hour dark cycle. They had free access to water and food. To generate tumor, 1×10^6 B16F10 cells were mixed with Matrigel (BD bioscience) and inoculated S.C. in the right flank of 6 week-old mice. Tumors (typically 2 mm in diameter) were palpable 5 days after subcutaneous injection. Peptide treatments (50 mg/kg body weight) were administered by intravenous tail vein injection on the day tumors became apparent (day 0) and then days 1, 2, 3, 4, 5, 6 and 7. Control mice were treated only with saline vehicle. Mice were weighted, and tumor volumes were calculated with the following formula: π/6×larger diameter×(smaller diameter)^2.

[3] = target: T1, S100B (Homo sapiens, UniProt P04271); experiment: Fluorescence anisotropy binding of N-terminal fluorescein labeled peptides to S100B
T1 sequence (P04271 1-92): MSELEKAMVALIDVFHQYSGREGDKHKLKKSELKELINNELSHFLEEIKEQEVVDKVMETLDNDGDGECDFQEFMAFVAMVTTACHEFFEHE
Source text: FIG. 2. (A) Table of some representative peptides synthesized which respectively include pM-53 (SEQ ID No. 6), pBN-53 (SEQ ID No. 7), pBDC-53 (SEQ ID No. 8), pBM-TRTK (SEQ ID No. 2), pBDC-TRTK (two SEQ ID No. 2's cross-linked together with BMH), and pBBD-TRTK (SEQ ID No. 11) and their dissociation constants. Binding isotherm of branch dimeric SEQ ID No. 3 (i.e., SEQ ID No. 11) with (B) S-100B and (C) S100P and (D) branch dimeric SEQ ID No. 5 (i.e., SEQ ID No. 12) with S100B. Fluorescein labeled, 5 nM branch dimeric SEQ ID No. 3 (i.e., SEQ ID No. 11) or branch dimeric SEQ ID No. 5 (i.e., SEQ ID No. 12) was titrated with increasing concentrations of S100B or S100P in 50 mM Tris-HCl buffer, pH 7.5, containing 50 mM NaCl and 10 mM CaCl2 at ambient temperatures which was 25±1 degree C. Anisotropy was determined at each point. The each point is averaging of at least three independent experiments. The line is best fit to a single site binding equation given in description of the invention.
Binding affinity of aib substituted p53 (SEQ ID No. 7) (and all other peptides) was estimated by fluorescence anisotropy using N-terminal fluorescein labeled peptides. […] Since S100B is a dimer, one possible way to enhance the binding is to synthesize a bivalent molecule, which can simultaneously bind to two subunits. SEQ ID No. 7 was dimerized with a properly designed cross-linker through inserted cysteine residues (SEQ ID No. 8). The C-terminal side of the two peptides (bound to two different subunits) comes fairly close and is separated by shallow groove allowing a cross-linker to fit. The length of the cross-linker was chosen such that it spans the separation between the two cysteine residues in the predicted structure.
Binding data of the several of these peptides are shown in FIG. 2 (A) and some of the corresponding binding isotherms are shown FIG. 2(B-D). […] Also synthesized was a mutant branched peptide (SEQ ID No. 12 which is a lysine branch dimeric form of SEQ ID No. 5) bearing two mutations in the interacting residues. […] This peptide will be used as a control in the cellular experiments to be described later.

[4] = test system: SK-MEL5 cells; experiment: Phase contrast microscopy of SK-MEL5 cells (shape change, blebbing, apoptosis); assay type: cell-based
Source text: FIG. 3. Phase contrast microscopy of SK-MEL5 cells (A) 2 hrs after treatment with 10 microM SEQ ID No. 10; (B) 18 hrs after treatment with 20 microM branch dimeric SEQ ID No. 5 (i.e., SEQ ID No. 12); (C) 2 hr after treatment with branch dimeric SEQ ID No. 3 (i.e., SEQ ID No. 11) (without the cell penetration tag) and (D) control.
FIG. 6. (A) Phase contrast microscopy of SK-MEL5 cells (Upper panel) 10 microM SEQ ID No. 10 with DR6 tags at two branches (Lower panel), and 10 microM pBBDR-TRTK (i.e., SEQ ID No. 10), pre-treated with 10 microM pifithrin-micro, 1 hr after treatment (Upper panel). (B) Confocal microscopic images of merged p53 (green) and mitotracker (red), Top untreated and bottom, 1 h after treatment with SEQ ID No. 10.
The effect of all the synthesized peptides on several melanoma cell lines which are known to over-express S100B was investigated.
Given the rapidity of apoptosis initiation, the examination of the recently reported direct mitochondrial translocation pathway was also done by the method if Vaseva and Moll, 2009. It has been reported that a small molecule pifithrin-micro blocks this pathway without affecting the canonical transcription-dependent pathway of p53 initiated apoptosis and a close analog, pifithrin-α blocks the canonical pathway without affecting the direct mitochondrial pathway (Strom et al., 2006). […]

[5] = upto 50 mg/Kg body weight, i.v.

## CC[C@H](C)[C@H](NC(=O)[C@H](CCCCN)NC(=O)[C@@H](NC(=O)[C@H](CCCNC(=N)N)NC(=O)[C@@H](NC(=O)[C@@H](CCCNC(=N)N)NC(=O)[C@@H](CCCNC(=N)N)NC(=O)[C@@H](CCCNC(=N)N)NC(=O)[C@@H](CCCNC(=N)N)NC(=O)[C@@H](CCCNC(=N)N)NC(=O)[C@H](N)CCCNC(=N)N)[C@@H](C)O)[C@@H](C)O)C(=O)N[C@@H](CC(=O)O)C(=O)N[C@@H](Cc1c[nH]c2ccccc12)C(=O)NC(C)(C)C(=O)N[C@@H](CCCCN)C(=O)N[C@H](C(=O)N[C@@H](CC(C)C)C(=O)NC(C)(C)C(=O)N[C@@H](CCCCN)C(=O)NCCCCCC(=O)NCCCC[C@H](NC(=O)CCCCCNC(=O)[C@H](CCCCN)NC(=O)C(C)(C)NC(=O)[C@H](CC(C)C)NC(=O)[C@@H](NC(=O)[C@H](CCCCN)NC(=O)C(C)(C)NC(=O)[C@H](Cc1c[nH]c2ccccc12)NC(=O)[C@H](CC(=O)O)NC(=O)[C@@H](NC(=O)[C@H](CCCCN)NC(=O)[C@@H](NC(=O)[C@H](CCCNC(=N)N)NC(=O)[C@@H](NC(=O)[C@@H](CCCNC(=N)N)NC(=O)[C@@H](CCCNC(=N)N)NC(=O)[C@@H](CCCNC(=N)N)NC(=O)[C@@H](CCCNC(=N)N)NC(=O)[C@@H](CCCNC(=N)N)NC(=O)[C@H](N)CCCNC(=N)N)[C@@H](C)O)[C@@H](C)O)[C@@H](C)CC)[C@@H](C)CC)C(N)=O)[C@@H](C)CC [SEQ ID No. 10, ^DR6 TRTKIDWBKILBKAhxKAhxKBLIKBWDIKTRT-^DR6]
[1]
  IC50: < 2000 nM
[2]; after 8 days of treatment, 50 mg/Kg
  histopathology of key target organs: normal
[2]; [5]
  lethality: non-lethal
  toxicity: no demonstrable toxicity

## CC[C@H](C)[C@H](NC(=O)[C@H](CCCCN)NC(=O)C(C)(C)NC(=O)[C@H](C)NC(=O)[C@H](CC(=O)O)NC(=O)[C@H](C)NC(=O)[C@H](CCCCN)NC(=O)[C@@H](NC(=O)[C@H](CCCNC(=N)N)NC(=O)[C@@H](N)[C@@H](C)O)[C@@H](C)O)C(=O)N[C@@H](CC(C)C)C(=O)NC(C)(C)C(=O)N[C@@H](CCCCN)C(=O)NCCCCCC(=O)NCCCC[C@H](NC(=O)CCCCCNC(=O)[C@H](CCCCN)NC(=O)C(C)(C)NC(=O)[C@H](CC(C)C)NC(=O)[C@@H](NC(=O)[C@H](CCCCN)NC(=O)C(C)(C)NC(=O)[C@H](C)NC(=O)[C@H](CC(=O)O)NC(=O)[C@H](C)NC(=O)[C@H](CCCCN)NC(=O)[C@@H](NC(=O)[C@H](CCCNC(=N)N)NC(=O)[C@@H](N)[C@@H](C)O)[C@@H](C)O)[C@@H](C)CC)C(N)=O [SEQ ID No. 12, TRTKADABKILBKAhxKAhxKBLIKBADAKTRT-(I5A,W7A)] (I: H-TRTKADA[Aib]KIL[Aib]K[Ahx]K-NH2 / II: H-TRTKADA[Aib]KIL[Aib]K[Ahx]; amide I:15-II:C; N-terminus assumed)
[3]; fluorescence anisotropy, 50 mM Tris-HCl pH 7.5, 50 mM NaCl, 10 mM CaCl2, 25 degree C, read-out: Kd (dissociation constant) for S100B
  Kd: 135 ± 18.5 nM

## NS(=O)(=O)C#Cc1ccccc1 [pifithrin-μ, reference compound]
[4]; 10 microM pifithrin pre-treatment, 10 microM peptide, 1 hr
  effect of pifithrin-μ on peptide-induced apoptosis: blebbings are not seen

## QSTBRHBKLMFKTBG (QST[Aib]RH[Aib]KLMFKT[Aib]G-NH2) [SEQ ID No. 7, P53 Aib substituted monomer peptide]
[3]; fluorescence anisotropy
  binding to S100B relative to parent peptide, in words: somewhat stronger than the unmodified peptide
  dissociation constant for S100B, in words: micromolar range

## SEQ ID No. 2 with DR6 tags at two branches: pBM-TRTK dimerised with BMH crosslinker and tagged with hexa-arginine (TRTKIDW[Aib]KIL[Aib]GGGCG-NH2; also: dimer through Cys via BMH crosslinker, DR6 (hexa-arginine) tags on two branches, place not given here)
[4]; SK-MEL5
  potency in inducing apoptosis relative to SEQ ID No. 10: nearly as potent as SEQ ID No. 10

## SEQ ID No. 2: pBM-TRTK dimerised through cysteine residues with BMH cross-linker (TRTKIDW[Aib]KIL[Aib]GGGCG-NH2; also: dimer through Cys via BMH crosslinker)
[3]; fluorescence anisotropy
  binding to S100B relative to parent peptide, in words: approximately an order of magnitude tighter binding

## SEQ ID No. 8: GCGG Modified pBM53 dimerised with BMH crosslinker; monomer QSTBRHBKLMFKTBGGGCG (QST[Aib]RH[Aib]KLMFKT[Aib]GGGCG-NH2; also: dimer via BMH crosslinker)
[3]; cross-linked dimer versus monomer SEQ ID No. 7
  increase in affinity for S100B upon dimerization: approximately 15 fold
